Data taken from BigSolDB 2.1.

O=[N+]([O-])c1ccc(Oc2ccc([N+](=O)[O-])cc2)cc1
solubility (mole fraction)
Settings | 283.15 K | 288.15 K | 293.15 K | 298.15 K | 303.15 K | 308.15 K | 313.15 K | 318.15 K | 323.15 K
in 1,4-dioxane | 0.026 | 0.0325 | 0.0409 | 0.0489 | 0.0575 | 0.0674 | 0.08 | 0.0922 | 0.11
in 1-methoxy-2-propanol | 0.00539 | 0.00657 | 0.0071 | 0.00864 | 0.00979 | 0.0114 | 0.0137 | 0.0162 | 0.0198
in 2-methoxyethanol | 0.00657 | 0.00753 | 0.00823 | 0.0103 | 0.0116 | 0.0131 | 0.0158 | 0.0182 | 0.022
in DMAc | 0.0802 | 0.0866 | 0.0913 | 0.103 | 0.115 | 0.126 | 0.144 | 0.164 | 0.184
in DMF | 0.0524 | 0.0612 | 0.0663 | 0.077 | 0.0883 | 0.0933 | 0.111 | 0.126 | 0.152
in acetic acid | 0.00292 | 0.00347 | 0.00366 | 0.00469 | 0.00525 | 0.00612 | 0.0072 | 0.00835 | 0.0103
in acetone | 0.0155 | 0.0173 | 0.0197 | 0.0246 | 0.0281 | 0.0333 | 0.0401 | 0.0484 | 0.0571
in acetonitrile | 0.00446 | 0.00587 | 0.00682 | 0.00926 | 0.0104 | 0.0129 | 0.0158 | 0.0195 | 0.0241
in anisole | 0.0243 | 0.0293 | 0.0339 | 0.0395 | 0.0444 | 0.0547 | 0.0647 | 0.0746 | 0.0893
in ethanol | 0.00035 | 0.000369 | 0.000418 | 0.000531 | 0.000631 | 0.000807 | 0.00102 | 0.00124 | 0.0015
in ethyl acetate | 0.0133 | 0.015 | 0.0172 | 0.0206 | 0.0228 | 0.0266 | 0.0316 | 0.036 | 0.0422
in isopropanol | 0.000139 | 0.000199 | 0.000222 | 0.000322 | 0.000394 | 0.000538 | 0.000779 | 0.000996 | 0.00136
in methanol | 0.000259 | 0.000329 | 0.000376 | 0.000525 | 0.000637 | 0.000804 | 0.00095 | 0.00115 | 0.00145
in n-butanol | 0.000203 | 0.000337 | 0.00049 | 0.000661 | 0.000826 | 0.00111 | 0.00144 | 0.00183 | 0.00241
